For series [1] the following is noted: snar bond, 15-membered ring, (E)-but-2-ene-1,4-diamine 2HCl/DIPEA.
For series [2] the following is noted: the molecule shown is the open-chain precursor; snar bond; 15-membered ring; (E)-but-2-ene-1,4-diamine 2HCl/DIPEA; EtOH/THF 3:1; 46.0 mM; 105.0 °C.
Series [3] in a line: Apparent solubility/extended kinetic solubility by UHPLC. The series is classed as physicochemical. Particulars: aqueous buffer, thermodynamic from solid, phosphate buffer, 37° C. The method, then:
Biological Assay—Determination of Apparent Solubility/Extended Kinetic Solubility by UHPLC
Test sample preparation: About 0.5 mg of the test sample was weighed and transferred in duplicate in 1 mL glass inserts of 96 well plates. 5 μL of DMSO and 1 ml of phosphate buffer were added. Allowed for equilibrium in an orbital shaker at 37° C. for 24 hrs. Later, allowed it cool to room temperature and centrifuged the 96 well plate (at 240×10 RPM for 20 min) and supernatant material was taken into collection plate, covered it with the heat resistant aluminum sheet or supernatant material was directly taken into HPLC sample vial.
Injected diluent as blank and linearity solutions in duplicate. Recorded the chromatograms and plotted the calibration curve, concentration (X-axis) versus Area (y-axis). The correlation coefficient for calibration curve should be not less than 0.95. If above criteria passes, then injected the test samples and recorded the chromatograms. In case saturated peaks are observed, then diluted the test sample with diluent as appropriate.
Calculated the slope and intercept of the calibration curve. From the standard curve, determined the solubility of the sample in μM (micromolar).

Series [4] concerns the target T1, Human STING (Homo sapiens, UniProt Q86WV6, G230A/H232R/R293Q/R71H).
T1 construct: using human THP1-Blue™ ISG SEAP based reporter cell line (Invivogen); host or cells: THP1-Blue ISG cells (human monocytic THP-1 derived SEAP reporter line)
Kind of series: Stimulation of human STING signaling in THP1 cell line (THP1-Blue ISG SEAP reporter). It is filed as cell-based. Particulars: THP1-Blue ISG cells, SEAP activity, 18-20 hours. As to the method: Biological Assay—Stimulation of Human STING Signaling in THP1 Cell Line
Compounds were tested for their STING activation potential using human THP1-Blue™ ISG SEAP based reporter cell line (Invivogen). Briefly, THP1-Blue ISG cells (100,000 cells/well) in 96 well plate were treated with varying concentrations of test and reference compounds and incubated at 37° C. with 5% CO2 for 18-20 hours. The control untreated cells were also set up. Post incubation, the cell supernatant was tested for SEAP (Secreted Embryonic Alkaline Phosphatase) activity using the QuantiBlue™ substrate reagent (Invivogen). The formation of blue coloured product was quantified by measuring absorbance at wavelength of 620 nm using PheraStar/Tecan reader. The average of duplicate readouts for each data point was plotted in GraphPad prism 6 against the concentration of test or reference compound to calculate EC50 value. The fold of SEAP induction or increase in luminescence at different data points was estimated against the un-stimulated cell control set.

Structures can show the parent of a compound that is named as a salt. Where two headings read alike, the source gives them in different places.

The record followed here is patent publication US12479858B2, “Macrocyclic compounds as sting agonists and methods and uses thereof” (Lupin Limited, priority 2019, dated 2025).

T1 sequence (Q86WV6 whole entry R71H/G230A/H232R/R293Q): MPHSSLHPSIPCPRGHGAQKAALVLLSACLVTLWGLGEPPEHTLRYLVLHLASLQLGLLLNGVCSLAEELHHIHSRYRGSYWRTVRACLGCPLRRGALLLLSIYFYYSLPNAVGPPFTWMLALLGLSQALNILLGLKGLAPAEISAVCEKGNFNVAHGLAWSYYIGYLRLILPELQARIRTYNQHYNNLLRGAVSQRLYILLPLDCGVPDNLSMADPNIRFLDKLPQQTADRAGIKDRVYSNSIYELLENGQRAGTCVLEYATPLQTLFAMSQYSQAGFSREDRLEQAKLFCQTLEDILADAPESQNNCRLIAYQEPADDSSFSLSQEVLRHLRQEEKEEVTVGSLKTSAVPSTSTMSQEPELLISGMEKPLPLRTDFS

In turn, `CCOC(=O)c1cc(OCC(COc2cc(C(=O)OCC)cc([N+](=O)[O-])c2Cl)N2CCOCC2)c(Cl)c([N+](=O)[O-])c1` gave a ring closure, crude yield in series [1] (the molecule shown is the open-chain precursor, EtOH/THF 7:1, 156.5 mM, 110.0 °C) of 88%.

`CCOC(=O)c1cc(OCCCOc2cc(C(=O)OC(C)(C)C)cc([N+](=O)[O-])c2Cl)c(Cl)c([N+](=O)[O-])c1` came in with a ring closure, isolated yield in series [2] of 90%.

Turning to `CCOC(=O)c1cc(OCCCOc2cc(C(N)=O)cc([N+](=O)[O-])c2Cl)c(Cl)c([N+](=O)[O-])c1`, in series [1] (the molecule shown is the open-chain precursor, EtOH/THF 3:1, 99.5 mM, 120.0 °C), the ring closure, crude yield worked out at 73%.

In the case of `CCOC(=O)c1cc(OC[C@H](COc2cc(C(=O)OC(C)(C)C)cc([N+](=O)[O-])c2Cl)N2C3CCC2COC3)c(Cl)c([N+](=O)[O-])c1`, the ring closure, crude yield in series [1] (the molecule shown is the open-chain precursor, EtOH, 121.0 mM, 105.0 °C) stood at 89.8%.

The term solubility denotes the dissolved amount per volume that the medium holds. The EC50 is the concentration at which the effect is half-maximal. A higher EC50 goes with a need for much substance. As to `CCn1nc(C)cc1C(=O)Nc1nc2cc(C(N)=O)cc3c2n1C/C=C/Cn1c(NC(=O)c2cc(C)nn2CC)nc2cc(C(=O)NCCCn4cc(C(=O)O)cn4)cc(c21)OC[C@@H](N1C2CCC1COC2)CO3` [Compound 18, 1-(3-((8S,E)-8-(3-oxa-8-azabicyclo[3.2.1]octan-8-yl)-12-carbamoyl-1,15-bis(1-ethyl-3-methyl-1H-pyrazole-5-carboxamido)-8,9,16,19-tetrahydro-7H-6,10-dioxa-2,14,15a,19a-tetraazacyclopentadeca[3,2,1-cd:8,9,10-c′d′]diindene-4-carboxamido)propyl)-1H-pyrazole-4-carboxylic acid sodium salt], in series [3], the solubility at 24 h is 250 µM. The same molecule came in with an EC50 in series [4] of 1 to 10 nM.

Take “diethyl (E)-7-(8-oxa-3-azabicyclo[3.2.1]octan-3-yl)-1,13-dinitro-7,8,14,15,18,19-hexahydro-6H-dibenzo[b,j][1,12]dioxa[4,9]diazacyclopentadecine-3,11-dicarboxylate”: the ring closure, crude yield in series [1] (EtOH/THF 7.4:1, 148.0 mM, 110.0 °C) came to 88%.
